This data set concerns HCV IRES. Briefly: sf-SHAPE structure mapping of the HCV IRES in the presence of miRNA. Type of data set: binding, Hepatitis C virus. The source says:
First, the intricacies (and cost) introduced by using multiple fluorophores have been eliminated by using a single fluorophore-labelled primer and multiple capillaries, rather than using multiple fluorophores sets in each capillary. We have therefore named this technique, single fluorophore SHAPE (sf-SHAPE). sf-SHAPE is a fragment analysis method that uses an internal standard to allow data from one capillary to be directly compared to data from another, with high precision. Commercial software (Peak Scanner, ABI), as well as custom-designed software (CAFA)11, which assign fragment lengths to peaks using an internal standard and integrates each peak area, are freely available.
We have designed a program entitled Fast Analysis of SHAPE Traces (FAST), which then takes the output from Peak Scanner and automatically (a) corrects for signal decay; (b) corrects for differences in signal strength among samples; and (c) assigns the determined SHAPE reactivity to the appropriate nucleotide, using a ddNTP sequencing ladder and the local southern method. […] FAST is able to generate SHAPE reactivity data from electrophoretic traces in as little as 5-10 minutes, as opposed to hours, with high experimental reproducibility (R2=0.93).
We next explored the effect of miR-122 on the HCV IRES structure. In this experiment, the HCV IRES structure was determined in the presence of miR-122 as well as a control miRNA, miR-124. The IRES structure was also determined in the presence of a mutant miR-122, in which the seed region of miR-122 was retained (NT 1-9), while the remainder of the miRNA was replaced by the end of miR-124 [miR-122(seed) with miR-124(tail)].
SHAPE performed as previously described by Mortimer & Weeks (2009) Nature protocols 4, 1413-1421; and Wilkinson et al. (2006) Nature protocols 1, 1610-1616 except: RNA purification after acylation and removal of miRNA before RT by RNA C&C (Zymoresearch); DNA purification by size exclusion (Sephadex G-50 resin); 1 pmol RNA used in sequences reactions; fragment analysis protocol (GeneScan/ROX 500 standard/50 cm capillary/POP6/voltage 15 kV/T=60° C./injection time=15 s (3100 ABI); 6-FAM labelled primers), and PeakScanner/FAST analysis. IRES folding29, (100 mM NaCl; 2.5 mM MgCl), alamar blue assay and qRT-PCR were performed as previously described30. Luciferase assay performed as described30, except co-transfection (HCV/LNA) was by lipofectamine 2000 (3.5×10^5 huh 7.5 cells/well), with translation measured at 4 hours. LNAs purchased from Exiqon (Scramble-miR/hsa-miR-122 kd2). Sequence logo: RNA graphics were drawn using RNA Viz. P-values (two-tailed unpaired t-test) calculated by InStat 3 (Graphpad).

Consider one substance from patent US20130288917A1, “Rapid High Resolution, High Throughput RNA Structure, RNA-Macromolecular Interaction, and RNA-Small Molecule Interaction Mapping” (The Board of Trustees of the Leland Stanford Junior …, priority 2010, published 2013).

Entries after “also recorded” stand apart in the source; their conditions may differ.

With “miR-122: liver-expressed miRNA, UGGAGUGUGA CAAUGGUGUUUG (UGGAGUGUGACAAUGGUGUUUG)”, the “effect on IRES structure (SHAPE reactivity)” value (HCV IRES with versus without miRNA) was “induced a number of changes”. In addition, the “binding at NTs 32-37” value (outside the complementary seed region) is “results in binding”. For the same substance, under “seed site”, the “binding to the S2 target of the IRES (NT 38-42)” value was “bound”. In addition, the “flexibility of the S2 target site” value (upon addition of miRNA, HCV nucleotides 32-42) is on record as “significant reduction in flexibility”. The “flexibility / reactivity of domain IV (AUG start site)” value (upon addition of miRNA, nucleotides 335, 336, 351) is listed as “becomes more flexible; also recorded: significantly increased flexibility”.
